Measurements from ChEMBL document CHEMBL4033655, “Part I: Design, synthesis and biological evaluation of novel pyrazole-benzimidazole conjugates as checkpoint kinase 2 (Chk2) inhibitors with studying their activities alone and in combination with genotoxic drugs” (Eur J Med Chem, 2017).

Experiment: Acute toxicity in Sprague-Dawley rat assessed as mortality administered orally as single dose measured up to 1 month
Conditions: in vivo, po

**Q.** For `Cc1nn(-c2ccccc2)c(Oc2ccc(-c3nc4cc(C(=O)O)ccc4[nH]3)cc2)c1[N+](=O)[O-]`, which LD50 is on record?
**A.** 400 mg/kg
